Source: patent US10520507B2, “Methods for determining the risk of cardiovascular disease in a subject having a chronic viral infection through the measurement of lysophosphatidic acid” (CASE WESTERN RESERVE UNIVERSITY, priority 2014, dated 2019)

Tests used:
[1] = biological target: ENPP2 (Mus musculus, UniProt Q9R1E6); set-up: species or system mice; details: in vivo, 30 mg/kg
[2] = system: CD3+ CD4+ and CD3+ CD8+ T cells in PBMC; experiment: LPA induced T cell activation assay (HLADR and CD38 co-expression, flow cytometry); assay type: cell-based, human; details: 100 uM LPA
Description: FIGS. 4(A-B) are a series of charts showing LPA dependent T cell activation. 500,000 PBMC from 5 healthy controls and 3 untreated HIV infected subjects were cultured overnight in the absence or presence of PHA, followed by 3 days of culture in media or 100 uM LPA. Proportion of CD3^+ CD4^+ (Panel A) and CD3^+ CD8^+ (Panel B) T cells that express of HLA DR and CD38 are shown. Statistical analysis shown for all 8 subjects combined. Comparisons between presence and absence of LPA in PHA pre-treated healthy control CD4 and CD8 activation were also significant (P=0.04, P=0.04).
To determine whether LPA can directly contribute to immune activation we have conducted LPA induced T cell activation assays using HLADR and CD38 co-expression as a readout (FIG. 4).

[3] = system: monocytes; experiment: In vitro monocyte activation by LPA; assay type: cell-based

Row | Molecule | Reversal of deleterious effect on T cell function and neoantigen response [1] | T cell activation (HLADR and CD38 co-expression) ([2]; PBMC from healthy controls and untreated HIV infected subjects, 4 day culture, with or without PHA) | Activation in the CD4 compartment ([2]; regardless of pre-activation, more robust with PHA pre-activation) | Monocyte activation [3]
1 | O=C(CCN1CCN(C(=O)OCc2cc(Cl)cc(Cl)c2)CC1)c1ccc2[nH]c(=O)oc2c1 [PF-8380] | at least partially reversed | – | – | –
2 | lysophosphatidic acid [LPA] | – | enhanced T cell activation | Activation was observed | activated monocytes
